Columns and labels:
[1] = target: SARS-CoV-2 Papain-like (PLpro) protease (Severe acute respiratory syndrome coronavirus 2, UniProt P0DTD1); assay: SARS-CoV-2 Papain-like (PLpro) protease biochemical enzyme inhibition assay (ubiquitin-fluorophore substrate, Ub-R110); conditions: Ub-R110 substrate; run in duplicate; read-out: PLpro IC50
SARS-CoV-2 replicon = assay: microbe, parasite or virus in culture; type: cell-based; conditions: Severe acute respiratory syndrome coronavirus 2, Huh-7

## C#CCNC(=O)C(=O)NCc1ccccc1C(=O)NC1(c2cc(Cl)cc(-c3c(C)nn(C4CC4)c3C)c2)CC1 [Example 131]
[1]
  IC50: < 0.1 µM
SARS-CoV-2 replicon
  EC50: < 1 µM

## CC1(CNC(=O)C(=O)NCc2ccccc2C(=O)NC2(c3cccc4ccccc34)CC2)CN(C#N)C1 [Example 429]
[1]
  IC50: < 0.1 µM
SARS-CoV-2 replicon
  EC50: < 1 µM

## C#CCNC(=O)C(=O)NCc1ccccc1C(=O)NC1(c2cc(Cl)cc(-c3cn(C)nc3C)c2)CC1 [Example 485]
[1]
  IC50: < 0.1 µM
SARS-CoV-2 replicon
  EC50: < 1 µM

## COC(=O)/C=C/CNC(=O)C(=O)NNc1ccccc1C(=O)NC1(c2cccc3ccccc23)CC1 [Example 576]
[1]
  IC50: < 0.1 µM
SARS-CoV-2 replicon
  EC50: < 1 µM

## C#CCNC(=O)C(=O)NCc1ccccc1C(=O)NC1(c2cc(-c3cnn(C4CC4)c3)cc(C(F)(F)F)c2)CC1 [Example 471]
[1]
  IC50: < 0.1 µM
SARS-CoV-2 replicon
  EC50: < 1 µM

## Cn1ncc2cc(C3(NC(=O)c4ccccc4CNC(=O)C(=O)NCC#Cc4nccs4)CC3)ccc21 [Example 345]
[1]
  IC50: < 0.1 µM
SARS-CoV-2 replicon
  EC50: < 1 µM

## N#CCNC(=O)C(=O)NCc1ccccc1C(=O)NC1(c2cc(-c3cccs3)cc(Cl)c2F)CC1 [Example 304]
[1]
  IC50: < 0.1 µM
SARS-CoV-2 replicon
  EC50: 1 to 10 µM

## O=C(NCC#Cc1nccs1)C(=O)NCc1ccccc1C(=O)NC1(c2cc(F)cc(-c3cnn(C(F)F)c3)c2)CC1 [Example 81]
[1]
  IC50: < 0.1 µM
SARS-CoV-2 replicon
  EC50: < 1 µM

## C#CCNC(=O)C(=O)NCc1ccccc1C(=O)NC1(c2cc(C#C)cc(C(F)(F)F)c2)CC1 [Example 69]
[1]
  IC50: < 0.1 µM
SARS-CoV-2 replicon
  EC50: < 1 µM

## NC(=O)C(=O)NCc1ccccc1C(=O)NC1(c2cc(-c3cnn(C4CC4)c3)cc3ccccc23)CC1 [Example 321]
[1]
  IC50: < 0.1 µM
SARS-CoV-2 replicon
  EC50: 1 to 10 µM

## C#CCNC(=O)C(=O)NCc1ccccc1C(=O)NC1(c2ccc3c(cnn3C)c2)CC1 [Example 344]
[1]
  IC50: < 0.1 µM
SARS-CoV-2 replicon
  EC50: < 1 µM

## COC(=O)/C=C/CNC(=O)C(=O)NCc1c(F)cc(F)cc1C(=O)N[C@H](C)c1cccc2ccccc12 [Example 360]
SARS-CoV-2 replicon
  EC50: 1 to 10 µM

## COc1cc(C2(NC(=O)c3ccccc3CNC(=O)C(=O)N[C@@H](C)C#Cc3ccc(C#N)cc3OC(F)(F)F)CC2)cc2cn(C3CC3)nc12 [Example 216]
[1]
  IC50: < 0.1 µM
SARS-CoV-2 replicon
  EC50: < 1 µM

## C#CCNC(=O)C(=O)NCc1ccccc1C(=O)NC1(c2cc(F)cc(Br)c2)CC1 [Example 228]
[1]
  IC50: < 0.1 µM
SARS-CoV-2 replicon
  EC50: < 1 µM

## N#CCNC(=O)C(=O)NCc1ccccc1C(=O)NC1(c2cc(-c3cnn(C(F)F)c3)cc(C(F)(F)F)c2)CC1 [Example 472]
[1]
  IC50: 0.1 to 1 µM
SARS-CoV-2 replicon
  EC50: > 10 µM

## N#CCNC(=O)C(=O)NCc1ccccc1C(=O)NC1(c2cn(-c3cnn(C4CC4)c3)c3ncccc23)CC1 [Example 409]
[1]
  IC50: < 0.1 µM
SARS-CoV-2 replicon
  EC50: 1 to 10 µM

## C#CCNC(=O)C(=O)NCc1ccccc1C(=O)NC1(c2cc(F)cc(-c3cnn(C4CC4)c3)c2)CC1 [Example 226]
[1]
  IC50: < 0.1 µM
SARS-CoV-2 replicon
  EC50: < 1 µM

## N#CCNC(=O)C(=O)NCc1ccccc1C(=O)NC1(c2cc(-c3cnn(C4CC4)c3)cc(C(F)(F)F)c2)CC1 [Example 470]
[1]
  IC50: < 0.1 µM
SARS-CoV-2 replicon
  EC50: 1 to 10 µM

## N#CCNC(=O)C(=O)NCc1ccccc1C(=O)NC1(c2cccc(-c3ccc(F)cc3)c2Cl)CC1 [Example 380]
[1]
  IC50: 0.1 to 1 µM
SARS-CoV-2 replicon
  EC50: > 10 µM

## O=C(NC/C=C/c1ncccn1)C(=O)NCc1ccccc1C(=O)NC1(c2ccc3ccccc3c2)CC1 [Example 582]
[1]
  IC50: < 0.1 µM
SARS-CoV-2 replicon
  EC50: < 1 µM

## C[C@@H](C#Cc1c(F)cc(F)cc1C#N)NC(=O)C(=O)NCc1ccccc1C(=O)NC1(c2ccc3nn(C)cc3c2)CC1 [Example 105]
[1]
  IC50: < 0.1 µM
SARS-CoV-2 replicon
  EC50: < 1 µM

## C[C@@H](NC(=O)c1cc(F)c(F)cc1CNC(=O)C(=O)NCC#N)c1cccc2ccccc12 [Example 363]
[1]
  IC50: 0.1 to 1 µM
SARS-CoV-2 replicon
  EC50: < 1 µM

## O=C(NC/C=C/C(=O)N1CCCC1)C(=O)NCc1ccccc1C(=O)NC1(c2cccc3ccccc23)CC1 [Example 557]
[1]
  IC50: < 0.1 µM
SARS-CoV-2 replicon
  EC50: 1 to 10 µM

## O=C(NCC#Cc1cncnc1)C(=O)NCc1ccccc1C(=O)NC1(c2ccc3ccccc3c2)CC1 [Example 166]
[1]
  IC50: < 0.1 µM
SARS-CoV-2 replicon
  EC50: < 1 µM

## COc1ccc(C2(NC(=O)c3ccccc3CNC(=O)C(=O)NCC#N)CC2)cc1Br [Example 229]
[1]
  IC50: < 0.1 µM
SARS-CoV-2 replicon
  EC50: 1 to 10 µM

## N#CCNC(=O)C(=O)NCc1ccccc1C(=O)NC1(c2cc(F)cc(Br)c2)CC1 [Example 218]
[1]
  IC50: 0.1 to 1 µM
SARS-CoV-2 replicon
  EC50: > 10 µM

## N#CN1CC[C@@H](C(=O)NCc2ccccc2C(=O)NC2(c3cc(Br)cc4ccccc34)CC2)C1 [Example 416]
SARS-CoV-2 replicon
  EC50: < 1 µM

## N#CCCCNC(=O)C(=O)NCc1ccccc1C(=O)NC1(c2ccc3ccccc3c2)CC1 [Example 403]
[1]
  IC50: 1 to 10 µM

## CN1CCC(n2cc(-c3cc(F)cc(C4(NC(=O)c5ccccc5CNC(=O)C(=O)NCC#Cc5cnc(F)nc5)CC4)c3)cn2)CC1 [Example 256]
[1]
  IC50: < 0.1 µM

## C[C@@H](C#Cc1ccc([S+](C)[O-])cc1)NC(=O)C(=O)NCc1ccccc1C(=O)NC1(c2ccc3nn(C)cc3c2)CC1 (stereo partly drawn) [Example 111]
[1]
  IC50: 1 to 10 µM

## N#CCNC(=O)C(=O)NCc1ccccc1C(=O)NC1(c2ccc3nc(C4CC4)ccc3c2)CC1 [Example 400]
[1]
  IC50: < 0.1 µM

## N#CN1CC[C@H](C(=O)NCc2ccccc2C(=O)NC2(c3cc(Br)cc4ccccc34)CC2)C1 [Example 417]
SARS-CoV-2 replicon
  EC50: < 1 µM

## COc1cccc(Oc2cc(C(F)(F)F)cc(C3(NC(=O)c4ccccc4CNC(=O)C(=O)NCC#N)CC3)c2)c1 [Example 64]
[1]
  IC50: > 10 µM

## O=C(NCC#Cc1nccs1)C(=O)NCc1ccccc1C(=O)NC1(c2cc(Cl)cc(-c3nccs3)c2)CC1 [Example 488]
[1]
  IC50: < 0.1 µM

## N#Cc1ccc(C#CCNC(=O)C(=O)NCc2ccccc2C(=O)NC2(c3cccc4ccccc34)COC2)c(F)c1 [Example 108]
[1]
  IC50: > 10 µM

## COc1cc(C2(NC(=O)c3ccccc3CNC(=O)C(=O)NCC(O)C(F)(F)F)CC2)cc2cn(C3CC3)nc12 (stereo not drawn) [Example 513]
[1]
  IC50: > 10 µM

## Cc1cnn(C)c1-c1cc(C(F)(F)F)cc(C2(NC(=O)c3ccccc3CNC(=O)C(=O)NCC#N)CC2)c1 [Example 474]
[1]
  IC50: 0.1 to 1 µM

## O=C(NCC#Cc1cc(F)cc(F)c1)C(=O)NCc1ccccc1C(=O)NC1(c2ccc3ccccc3c2)CC1 [Example 75]
[1]
  IC50: > 10 µM

## CC(C)[C@@H](C#Cc1ncccc1C(F)(F)F)NC(=O)C(=O)NCc1ccccc1C(=O)NC1(c2ccc3nn(C)cc3c2)CC1 [Example 205]
[1]
  IC50: > 10 µM

## COC(=O)/C=C/CNC(=O)C(=O)NCc1ncoc1C(=O)N[C@H](C)c1cccc2ccccc12 [Example 364]
[1]
  IC50: > 10 µM

## COc1cc(C2(NC(=O)c3ccccc3CNC(=O)C(=O)NC[C@@H]3CCN3C#N)CC2)cc2cn(C3CC3)nc12 [Example 516]
[1]
  IC50: < 0.1 µM

## O=C(NCC#Cc1cccnc1)C(=O)NCc1ccccc1C(=O)NC1(c2ccc3ccccc3c2)CC1 [Example 170]
[1]
  IC50: 1 to 10 µM

## C#CCNC(=O)C(=O)NCc1ccccc1C(=O)NC1(c2cc(Oc3ccccc3)cc(C(F)(F)F)c2)CC1 [Example 67]
[1]
  IC50: > 10 µM

## Cn1cc(C#CCNC(=O)C(=O)NCc2ccccc2C(=O)NC2(c3ccc4ccccc4c3)CC2)cn1 [Example 169]
[1]
  IC50: > 10 µM

## COC(=O)/C=C/CCNC(=O)C(=O)Nc1ccccc1C(=O)N[C@H](C)c1cccc2ccccc12 [Example 10]
[1]
  IC50: > 10 µM

## COC(=O)/C=C/CN(C)C(=O)C(=O)NCc1ccccc1C(=O)N[C@H](C)c1cccc2ccccc12 [Example 546]
[1]
  IC50: 1 to 10 µM

## C#CCNC(=O)C(=O)NCc1ccccc1C(=O)NC1(c2cccc3ncccc23)CC1 [Example 374]
[1]
  IC50: < 0.1 µM

## C#CCNC(=O)C(=O)NCc1ccccc1C(=O)NC1(c2cc(-c3c(C)cnn3C)cc(C(F)(F)F)c2)CC1 [Example 475]
[1]
  IC50: 0.1 to 1 µM

## N#CCNC(=O)C(=O)NCc1ccccc1C(=O)NC1(c2cc(C(F)(F)F)ccc2Cl)CC1 [Example 377]
[1]
  IC50: 0.1 to 1 µM

## O=C(NCC#Cc1nccs1)C(=O)NCc1ccccc1C(=O)NC1(c2cccc3cnccc23)CC1 [Example 391]
[1]
  IC50: < 0.1 µM

## N#Cc1cccc(C#CCNC(=O)C(=O)NCc2ccccc2C(=O)NC2(c3ccc4ccccc4c3)CC2)c1 [Example 93]
[1]
  IC50: > 10 µM

## O=C(NCC#Cc1ccc(C(F)(F)F)s1)C(=O)NCc1ccccc1C(=O)NC1(c2ccc3ccccc3c2)CC1 [Example 89]
[1]
  IC50: > 10 µM

## Cn1cc2cc(C3(NC(=O)c4ccccc4CNC(=O)C(=O)NCC#Cc4ccc(Cl)cc4F)CC3)ccc2n1 [Example 148]
[1]
  IC50: < 0.1 µM

## C#C[C@@H](NC(=O)C(=O)NCc1ccccc1C(=O)NC1(c2ccc3nn(C)cc3c2)CC1)C(C)C [Example 91]
[1]
  IC50: > 10 µM

## O=C(NCC#Cc1ccc(F)cc1)C(=O)NCc1ccccc1C(=O)NC1(c2ccc3ccccc3c2)CC1 [Example 76]
[1]
  IC50: > 10 µM

## O=C(NC/C=C/c1nccs1)C(=O)NCc1ccccc1C(=O)NC1(c2ccc3ccccc3c2)CC1 [Example 583]
[1]
  IC50: 0.1 to 1 µM

## COC(=O)/C=C/CCNC(=O)C(=O)NCC1C[C@@H]1C(=O)N[C@H](C)c1cccc2ccccc12 (stereo partly drawn) [Example 19]
[1]
  IC50: > 10 µM

## C[C@@H](NC(=O)c1ccccc1CNC(=O)C(=O)NCC#N)c1cc(-c2ccsc2)cc(C(F)(F)F)c1 [Example 466]
[1]
  IC50: > 10 µM

## C=CC(=O)NNC(=O)C(=O)Nc1ccccc1C(=O)N[C@H](C)c1cccc2ccccc12 [Example 27]
[1]
  IC50: > 10 µM

## CC(C)(C)OC(=O)N1CCC[C@@H]1CNC(=O)C(=O)NCc1ccccc1C(=O)NC1(c2cccc3ccccc23)CC1 [Example 506]
[1]
  IC50: > 10 µM

## N#CCNC(=O)C(=O)NCc1ccccc1C(=O)NC1(c2cc(F)cc(C(F)(F)F)c2)CC1 [Example 375]
[1]
  IC50: 1 to 10 µM

## O=C(C#CCNC(=O)C(=O)NCc1ccccc1C(=O)NC1(c2cc(-c3cccs3)cc(C(F)(F)F)c2)CC1)NC1CC1 [Example 522]
[1]
  IC50: 0.1 to 1 µM

## N#CCNC(=O)C(=O)NCc1ccccc1C(=O)NC1(c2cc(-c3cn(C4CC4)nn3)cc(C(F)(F)F)c2)CC1 [Example 60]
[1]
  IC50: 0.1 to 1 µM

## Cc1cccc(C)c1NC(=O)/C=C/CNC(=O)C(=O)NCc1ccccc1C(=O)NC1(c2cccc3ccccc23)CC1 [Example 562]
[1]
  IC50: > 10 µM

## N#CCNC(=O)C(=O)NCc1ccccc1C(=O)NC1(c2cc(Oc3ccccc3)cc(C(F)(F)F)c2)CC1 [Example 68]
[1]
  IC50: > 10 µM

Reference: patent publication US20240327334A1, “Covalent Inhibitors As Antiviral Agents” (Enanta Pharmaceuticals, Inc., priority 2022, published 2024)
